Test results published in ChEMBL document CHEMBL4340530, “Peptide-based covalent inhibitors of MALT1 paracaspase” (Bioorg Med Chem Lett, 2019).
Numbered stars: 1 amine (or outer) side, 2 acyl side, 3 side chain; on linkers, the order of the positions; unused ones are H or OH. Square brackets hold non-standard residues; d marks the D form. Peptide text beside a SMILES is read from it. * marks the point of attachment. Chg = N[C@H](C(=O)O)C1CCCCC1; Phg = N[C@H](C(=O)O)c1ccccc1; Tle = CC(C)(C)[C@H](N)C(=O)O; αMeP = C[C@@]1(C(=O)O)CCCN1; Pip = O=C(O)[C@@H]1CCCCN1; Ac6c = NC1(C(=O)O)CCCCC1; Ac5c = NC1(C(=O)O)CCCC1; Cbz = O=C(OCc1ccccc1)*; CO = O=C([*:1])[*:2]; Bz = O=C(c1ccccc1)*; NHPh = c1ccc(N*)cc1; CH2F = FC*

Each molecule was assayed on OCI-Ly3 (assay: Antiproliferative activity against human OCI-LY3 cells assessed as growth inhibition treated every 48 hrs measured after 96 hrs by CellTiter-Glo assay).
Type: functional

Row | SMILES | GI50
1 | N=C(N)NCCC[C@H](NC(=O)[C@@H]1CCCN1C(=O)[C@H](Cc1ccccc1)NC(=O)OCc1ccccc1)C(=O)CF | 2200 nM
2 | CC(C)[C@H](NC(=O)OCc1ccccc1)C(=O)N1CCC[C@@]1(C)C(=O)N[C@@H](CCCNC(=N)N)C(=O)CF (Cbz-Val-[αMeP]-Arg-CH2F) | 10500 nM
3 | CC(C)[C@H](NC(=O)Nc1ccccc1)C(=O)N1CCC[C@H]1C(=O)N[C@@H](CCCNC(=N)N)C(=O)CF ({NHPh-CO}-Val-Pro-Arg-CH2F) | 1520 nM
4 | CC(C)[C@H](NC(=O)c1ccc(Cl)cc1)C(=O)N1CCC[C@H]1C(=O)N[C@@H](CCCNC(=N)N)C(=O)CF | 1240 nM
5 | CC(C)[C@H](NC(=O)Nc1ccc(Cl)cc1)C(=O)N1CCC[C@H]1C(=O)N[C@@H](CCCNC(=N)N)C(=O)CF | 780 nM
6 | CC(C)[C@H](NC(=O)c1ccccc1)C(=O)N1CCC[C@H]1C(=O)N[C@@H](CCCNC(=N)N)C(=O)CF (Bz-Val-Pro-Arg-CH2F) | 660 nM
7 | N=C(N)NCCC[C@H](NC(=O)[C@@H]1CCCN1C(=O)[C@@H](NC(=O)OCc1ccccc1)c1ccccc1)C(=O)CF (Cbz-[Phg]-Pro-Arg-CH2F) | 8050 nM
8 | CC[C@H](C)[C@H](NC(=O)OCc1ccccc1)C(=O)N1CCC[C@H]1C(=O)N[C@@H](CCCNC(=N)N)C(=O)CF (Cbz-Ile-Pro-Arg-CH2F) | 2440 nM
9 | CC(C)C[C@H](NC(=O)OCc1ccccc1)C(=O)N1CCC[C@H]1C(=O)N[C@@H](CCCNC(=N)N)C(=O)CF (Cbz-Leu-Pro-Arg-CH2F) | 5490 nM
10 | CC(C)[C@H](NC(=O)OCc1ccccc1)C(=O)N1CCCC[C@H]1C(=O)N[C@@H](CCCNC(=N)N)C(=O)CF (Cbz-Val-[Pip]-Arg-CH2F) | 730 nM
11 | N=C(N)NCCC[C@H](NC(=O)[C@@H]1CCCN1C(=O)C1(NC(=O)OCc2ccccc2)CCCCC1)C(=O)CF (Cbz-[Ac6c]-Pro-Arg-CH2F) | 6230 nM
12 | CC(C)(C)[C@H](NC(=O)OCc1ccccc1)C(=O)N1CCC[C@H]1C(=O)N[C@@H](CCCNC(=N)N)C(=O)CF (Cbz-[Tle]-Pro-Arg-CH2F) | 1440 nM
13 | N=C(N)NCCC[C@H](NC(=O)[C@@H]1CCCN1C(=O)[C@@H](NC(=O)OCc1ccccc1)C1CCCCC1)C(=O)CF (Cbz-[Chg]-Pro-Arg-CH2F) | 1450 nM
14 | N=C(N)NCCC[C@H](NC(=O)[C@@H]1CCCN1C(=O)[C@@H](NC(=O)c1ccc(Br)cc1)C1CCCCC1)C(=O)CF | 130 nM
15 | CC(C)[C@H](NC(=O)c1ccc(C#N)cc1)C(=O)N1CCC[C@H]1C(=O)N[C@@H](CCCNC(=N)N)C(=O)CF | 6660 nM
16 | N=C(N)NCCC[C@H](NC(=O)[C@H](CO)NC(=O)[C@@H](NC(=O)c1ccc(Br)cc1)C1CCCCC1)C(=O)CF | 240 nM
17 | CC(C)[C@H](NC(=O)c1ccc(Br)cc1)C(=O)N1C[C@H](O)C[C@H]1C(=O)N[C@@H](CCCNC(=N)N)C(=O)CF | 70 nM
18 | CC(C)[C@H](NC(=O)c1ccc(Br)cc1)C(=O)N1CCOC[C@H]1C(=O)N[C@@H](CCCNC(=N)N)C(=O)CF | 460 nM
19 | CC(C)[C@H](NC(=O)OCc1ccccc1)C(=O)N[C@@H](CO)C(=O)N[C@@H](CCCNC(=N)N)C(=O)CF | 290 nM
20 | CC(C)[C@H](NC(=O)C1CCCCC1)C(=O)N1CCC[C@H]1C(=O)N[C@@H](CCCNC(=N)N)C(=O)CF | 940 nM
21 | CC(C)[C@H](NC(=O)c1ccc(Br)cc1)C(=O)N1COC[C@H]1C(=O)N[C@@H](CCCNC(=N)N)C(=O)CF | 120 nM
22 | CC(C)[C@H](NC(=O)c1cccc(Br)c1)C(=O)N1CCC[C@H]1C(=O)N[C@@H](CCCNC(=N)N)C(=O)CF | 530 nM
23 | N=C(N)NCCC[C@H](NC(=O)[C@@H]1CCCN1C(=O)C1(NC(=O)OCc2ccccc2)CCCC1)C(=O)CF (Cbz-[Ac5c]-Pro-Arg-CH2F) | 4310 nM
24 | N=C(N)NCCC[C@H](NC(=O)[C@@H]1C[C@@H](O)CN1C(=O)[C@@H](NC(=O)c1ccc(Br)cc1)C1CCCCC1)C(=O)CF | 60 nM
25 | CC(C)[C@H](NC(=O)c1ccc(Br)cc1)C(=O)N1CC[C@H]1C(=O)N[C@@H](CCCNC(=N)N)C(=O)CF | 770 nM
26 | CC(C)c1ccc(C(=O)N[C@H](C(=O)N2CCC[C@H]2C(=O)N[C@@H](CCCNC(=N)N)C(=O)CF)C(C)C)cc1 | 270 nM
